{"source": "patent US4950602A", "about": "“Inhibition of lactate production by pyruvate adducts” (Cornell Research Foundation, Inc., priority 1987, dated 1990)", "key": {"lactate dehydrogenase": {"system": "lactate dehydrogenase", "assay": "Reactive α-keto and α-hydroxy acids as inhibitors of lactate dehydrogenase", "assay_type": "biochemical", "description": "(§1) Each of the enzymes was assayed by procedures in which change of absorbance at 340 nm due to NADH was followed essentially as described by Bergmeyer (1974, Methods of Enzymatic Analysis, 2nd Eng. Ed., Verlag Chemie Weinheim Academic Press, N.Y.) with the following exceptions. Phosphofructokinase was assayed according to the method of Lai et al (1984, J. Neurochem., 42:438-446). NAD^+ -linked isocitrate dehydrogenase was assayed as described by Lai and Clark (1976, Biochem. J., 154:423-432). Pyruvate and α-ketoglutarate dehydrogenase complexes were respectively assayed according to the methods of Lai and Sheu (1985, J. Neurochem., 45:1861-1868) and Lai and Cooper (1986) (J. Neurochem, 47:1376-1386)."}, "[1]": {"biological_target": "lactate dehydrogenase (dogfish enzyme) (Squalus acanthias, UniProt P00341)", "sequence (P00341 whole entry)": "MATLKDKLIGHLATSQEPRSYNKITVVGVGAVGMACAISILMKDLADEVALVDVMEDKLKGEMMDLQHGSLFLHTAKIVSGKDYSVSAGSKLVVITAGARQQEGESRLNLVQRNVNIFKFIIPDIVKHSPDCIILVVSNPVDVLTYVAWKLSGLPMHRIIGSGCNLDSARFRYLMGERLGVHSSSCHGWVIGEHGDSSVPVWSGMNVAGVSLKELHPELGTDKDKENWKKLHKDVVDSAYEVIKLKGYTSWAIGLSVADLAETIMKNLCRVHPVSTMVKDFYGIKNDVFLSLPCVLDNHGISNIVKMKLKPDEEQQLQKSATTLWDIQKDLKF", "settings": "Burgner and Ray 1984; cited from earlier work"}, "[2]": {"biological_target": "T1, beef heart lactate dehydrogenase (Bos taurus, UniProt Q5E9B1)", "T1 construct": "purchased Worthington Biochemical Corporation (Freehold, N.J.); host or cells: beef heart", "T1 sequence (Q5E9B1 whole entry)": "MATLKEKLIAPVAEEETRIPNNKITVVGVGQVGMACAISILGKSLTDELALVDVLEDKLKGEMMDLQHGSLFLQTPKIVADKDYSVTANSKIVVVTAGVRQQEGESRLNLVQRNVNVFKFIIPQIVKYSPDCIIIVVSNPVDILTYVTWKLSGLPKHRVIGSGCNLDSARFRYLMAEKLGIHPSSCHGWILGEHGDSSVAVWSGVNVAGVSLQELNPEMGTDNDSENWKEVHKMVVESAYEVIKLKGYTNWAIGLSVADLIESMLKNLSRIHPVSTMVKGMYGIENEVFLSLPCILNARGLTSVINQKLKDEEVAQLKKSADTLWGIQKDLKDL", "assay": "Inhibition of beef heart lactate dehydrogenase (NADH absorbance at 340 nm)", "assay_type": "biochemical, bovine", "settings": "for Relative Activity (%) Beef Heart: 0.24 mM pyruvate, 0.1 mM NADH, pH 7.2, 25° C.", "description": "Enzymes and enzyme assays. Rabbit muscle glyceraldehyde-3-phosphate dehydrogenase (80 U/mg: ammonium sulfate suspension), rabbit muscle glycerol-3-phosphate dehydrogenase (40 U/mg; ammonium sulfate suspension),beef liver glutamate dehydrogenase (120 U/mg: in 50% glycerol), mitochondrial pig heart malate dehydrogenase (1100 U/mg; in 50% glycerol) and yeast hexokinase (140 U/mg; ammonium sulfate suspension) were purchased from Boehringer Mannheim Corp. (Indianapolis). Beef heart lactate dehydrogenase (280 U/mg) was purchased from Worthington Biochemical Corporation (Freehold, N.J.). Porcine heart L-alanine aminotransferase (130 U/mg), rabbit muscle phosphofructokinase (140 U/mg; ammonium sulfate suspension), bovine heart α-ketoglutarate (8 U/mg) and pyruvate (5 U/mg) dehydrogenase complexes, sodium pyruvate, L-methionine-SR-sulfoximine, DL-vinylglycine, NAD^+, NADH and NAD^+ analogues (3-acetylpyridine, thionicotinamide, and 3-pyridinealdehyde adenine dinucleotides) were purchased from Sigma Chemical Company (St. Louis, Mo.).\nas §1\n(§2) The reaction mixture (1 ml) contained 0.24 mM sodium pyruvate, 0.1 mM\n(§3) NADH, 100 mM potassium phosphate buffer (pH 7.2) and either purified\n(§4) bovine heart lactate dehydrogenase (0.01 U) or rat brain homogenate\n(§5) containing ~0.02 U of lactate dehydrogenase activity; 25° C.\n(§6) Since APADpyruvate adduct and RAP have a tendency to revert to pyruvate\n(§7) they were added to the reaction mixture just prior to addition of enzyme.\n(§8) Because the kinetics obtained with tightbinding inhibitors depends on the\n(§9) order of addition of substrates and inhibitors the enzyme was always adde\n(§10) last. Each value is the average of at least 3 determinations. Each of the […]"}, "[3]": {"system": "rat brain lactate dehydrogenase", "assay": "Inhibition of rat brain lactate dehydrogenase (rat brain homogenate)", "assay_type": "biochemical", "settings": "rat brain homogenate, 0.24 mM pyruvate, 0.1 mM NADH, pH 7.2, 25° C.", "description": "as §1, §2, §3, §4, §5, §6, §7, §8, §9, §10"}, "[4]": {"settings": "cited from earlier work; for stability in solution: Burgner and Ray 1984"}, "[5]": {"biological_target": "chicken H4 lactate dehydrogenase (Gallus gallus, UniProt P00337)", "sequence (P00337 whole entry)": "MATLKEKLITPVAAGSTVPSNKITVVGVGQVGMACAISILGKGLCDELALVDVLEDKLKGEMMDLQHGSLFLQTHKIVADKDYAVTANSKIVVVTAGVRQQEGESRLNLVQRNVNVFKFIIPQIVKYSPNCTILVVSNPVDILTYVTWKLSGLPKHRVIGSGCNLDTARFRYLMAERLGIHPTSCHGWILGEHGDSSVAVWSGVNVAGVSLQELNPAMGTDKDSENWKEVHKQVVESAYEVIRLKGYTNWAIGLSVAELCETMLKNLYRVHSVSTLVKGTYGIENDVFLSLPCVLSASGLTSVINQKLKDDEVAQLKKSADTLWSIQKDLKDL", "settings": "concentration not given; Everse et al 1971; cited from earlier work"}, "[6]": {"biological_target": "pig heart mitochondrial malate dehydrogenase (Sus scrofa, UniProt P00346)", "sequence (P00346 25-338)": "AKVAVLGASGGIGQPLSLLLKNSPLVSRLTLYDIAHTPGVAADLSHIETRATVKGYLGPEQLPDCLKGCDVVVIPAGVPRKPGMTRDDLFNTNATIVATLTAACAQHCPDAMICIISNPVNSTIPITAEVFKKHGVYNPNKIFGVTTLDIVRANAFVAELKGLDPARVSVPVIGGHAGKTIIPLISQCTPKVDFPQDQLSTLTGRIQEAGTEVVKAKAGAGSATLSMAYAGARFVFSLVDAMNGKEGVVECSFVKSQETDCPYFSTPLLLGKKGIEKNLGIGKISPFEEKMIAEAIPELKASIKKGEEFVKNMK", "settings": "concentration that inhibited chicken H4 lactate dehydrogenase by 59%; Everse et al 1971; cited from earlier work"}, "[7]": {"system": "dogfish liver glutamate dehydrogenase", "settings": "concentration that inhibited chicken H4 lactate dehydrogenase by 59%; Everse et al 1971; cited from earlier work"}, "[8]": {"biological_target": "yeast alcohol dehydrogenase (Saccharomyces cerevisiae, UniProt P00330)", "sequence (P00330 whole entry)": "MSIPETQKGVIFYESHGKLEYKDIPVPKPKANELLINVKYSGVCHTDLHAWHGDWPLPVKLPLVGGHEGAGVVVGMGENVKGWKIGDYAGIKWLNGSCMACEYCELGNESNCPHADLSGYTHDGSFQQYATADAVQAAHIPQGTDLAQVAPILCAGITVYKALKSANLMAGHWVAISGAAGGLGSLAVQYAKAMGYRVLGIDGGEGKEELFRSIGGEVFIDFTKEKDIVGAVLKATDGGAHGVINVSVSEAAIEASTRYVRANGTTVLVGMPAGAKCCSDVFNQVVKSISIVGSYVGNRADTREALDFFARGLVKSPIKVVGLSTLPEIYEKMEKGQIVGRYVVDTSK", "settings": "concentration that inhibited chicken H4 lactate dehydrogenase by 59%; Everse et al 1971; cited from earlier work"}, "[9]": {"biological_target": "horse liver alcohol dehydrogenase (Equus caballus, UniProt P00327)", "sequence (P00327 whole entry)": "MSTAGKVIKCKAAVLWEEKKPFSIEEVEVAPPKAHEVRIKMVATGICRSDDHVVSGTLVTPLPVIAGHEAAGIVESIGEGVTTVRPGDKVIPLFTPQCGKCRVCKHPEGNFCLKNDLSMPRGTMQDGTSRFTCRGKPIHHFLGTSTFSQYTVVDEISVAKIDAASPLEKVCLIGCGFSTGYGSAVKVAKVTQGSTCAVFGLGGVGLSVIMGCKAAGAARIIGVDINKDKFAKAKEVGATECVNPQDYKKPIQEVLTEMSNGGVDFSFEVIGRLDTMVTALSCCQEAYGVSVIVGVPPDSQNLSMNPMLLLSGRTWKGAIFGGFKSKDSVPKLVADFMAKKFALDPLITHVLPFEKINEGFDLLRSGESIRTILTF", "settings": "concentration that inhibited chicken H4 lactate dehydrogenase by 59%; Everse et al 1971; cited from earlier work"}}, "note": "Read-outs that look alike come from different tables or passages of the source.", "data": [{"compound": "CC=CC(=O)C(=O)O", "note": "[2-oxo-3-pentenoic acid]", "values": [{"measurement": "action on lactate dehydrogenase", "setting": "lactate dehydrogenase", "value": "substrates, not inhibitors"}]}, {"compound": "CC(=O)C1=CN([C@@H]2O[C@H](COP(=O)(O)OP(=O)(O)OC[C@H]3O[C@@H](n4cnc5c(N)ncnc54)[C@H](O)[C@@H]3O)[C@@H](O)[C@H]2O)C=CC1CC(=O)C(=O)O", "note": "(stereo partly drawn) [Acetyl analogue, reference compound]", "values": [{"measurement": "Ki", "setting": "[1]", "value": 0.1, "unit": "nM"}, {"measurement": "Relative Activity (%) Beef Heart", "setting": "[2]; additive 0.08 μM", "value": 90, "unit": "%"}, {"measurement": "Relative Activity (%) Beef Heart", "setting": "[2]; additive 0.42 μM", "value": 60, "unit": "%"}, {"measurement": "Relative Activity (%) Beef Heart", "setting": "[2]; additive 0.84 μM", "value": 21, "unit": "%"}, {"measurement": "Relative Activity (%) Rat Brain", "setting": "[3]; additive 0.42 μM", "value": 61, "unit": "%"}, {"measurement": "Relative Activity (%) Rat Brain", "setting": "[3]; additive 0.84 μM", "value": 30, "unit": "%"}, {"measurement": "stability in solution", "setting": "[4]; pH 7.0", "value": "reverts to free pyruvate and APAD"}, {"measurement": "stability in solution", "setting": "[4]; pH 11.0", "value": "relatively stable"}]}, {"compound": "NC(=O)C1=CN([C@@H]2O[C@H](COP(=O)(O)OP(=O)(O)OC[C@H]3O[C@@H](n4cnc5c(N)ncnc54)[C@H](O)[C@@H]3O)[C@@H](O)[C@H]2O)C=CC1CC(=O)C(=O)O", "note": "(stereo partly drawn) [NAD-pyruvate adduct]", "values": [{"measurement": "inhibition of chicken H4 lactate dehydrogenase", "setting": "[5]", "value": 59, "unit": "%"}, {"measurement": "Relative Activity (%) Beef Heart", "setting": "[2]; additive 34 μM", "value": 90, "unit": "%"}, {"measurement": "Relative Activity (%) Beef Heart", "setting": "[2]; additive 68 μM", "value": 62, "unit": "%"}, {"measurement": "Relative Activity (%) Beef Heart", "setting": "[2]; additive 136 μM", "value": 38, "unit": "%"}, {"measurement": "Ki", "setting": "[2]; calculated from Table 1 data with Km for NADH 2.5 μM, standard equation for a competitive inhibitor, read-out: Ki", "value": 2600, "unit": "nM"}, {"measurement": "Relative Activity (%) Rat Brain", "setting": "[3]; additive 34 μM", "value": 48, "unit": "%"}, {"measurement": "stability (loss of absorbance at 340 nm)", "setting": "[4]; Everse et al 1971", "value": "relatively unstable and easily oxidized"}, {"measurement": "effect on pig heart mitochondrial malate dehydrogenase", "setting": "[6]", "value": "little effect"}, {"measurement": "effect on dogfish liver glutamate dehydrogenase", "setting": "[7]", "value": "little effect"}, {"measurement": "effect on yeast alcohol dehydrogenase", "setting": "[8]", "value": "little effect"}, {"measurement": "effect on horse liver alcohol dehydrogenase", "setting": "[9]", "value": "little effect"}]}, {"compound": "NC(=S)C1=CN([C@@H]2O[C@H](COP(=O)(O)OP(=O)(O)OC[C@H]3O[C@@H](n4cnc5c(N)ncnc54)[C@H](O)[C@@H]3O)[C@@H](O)[C@H]2O)C=CC1CC(=O)C(=O)O", "note": "(stereo partly drawn) [Thio analogue]", "values": [{"measurement": "Relative Activity (%) Beef Heart", "setting": "[2]; additive 0.7 μM", "value": 38, "unit": "%"}, {"measurement": "Relative Activity (%) Beef Heart", "setting": "[2]; additive 1.4 μM", "value": 17, "unit": "%"}, {"measurement": "Relative Activity (%) Rat Brain", "setting": "[3]; additive 1.4 μM", "value": 33, "unit": "%"}]}, {"compound": "Vinylglycolate", "values": [{"measurement": "action on lactate dehydrogenase", "setting": "lactate dehydrogenase", "value": "substrates, not inhibitors"}]}]}
